4 molecules from US10066272B2, “Human homeobox gene ventx and macrophage terminal differentiation and activation, compositions and methods thereof” (priority 2011, dated 2018) can be followed below.

Format in all cases: cell-based, human
The subject of data set [1] is cytokine mRNA expression in macrophages. Kind of data set: Effects of VentX knockdown on cytokine mRNA expression in macrophages (real-time PCR). Details: unit not given here. The settings on record: macrophages transfected with siRNA; classical activation by LPS plus IFN-γ. Here is the method: Macrophages were generated through incubation of freshly isolated monocytes with 100 ng/mL M-CSF for 4 days. These macrophages were then transfected with siGFP or siVentX, respectively, and further cultured in RPMI 1640 medium for additional 3 days. Thereafter, cells were exposed to 1 μg/mL LPS plus 20 ng/mL γ-IFN for 6 hours. (A) Surface staining of CD40, CD80, CD86 and HLA-DR and intracellular staining of TNF-α and IL1-β were analyzed by flow cytometry. (B) Secreted TNF-α, IL1-β and IL12p70 from culture supernatants were determined with ELISA kits. (C) Reactive oxygen species (ROS) from siGFP or siVentX transfected macrophages were analyzed with fluorescence microscope (left) and flow cytometry (middle). […] (D) Nitrate level from siGFP and siVentX transfected macrophages. Data represent mean+SD of three different experiments. (E) Phagocytosis of siGFP and siVentX transfected macrophage. Red histogram represents transfection with siGFP; green histogram represents transfection with siVentX. Left panel: cells were incubated on ice; right panel: cells were incubated at 37° C. (F) Effects of VentX knockdown on mixed lymphocyte reaction. Irradiated macrophages that had been transfected with siGFP or siVentX were utilized to stimulate allogenic naïve CD4 T cells proliferation. The proliferation rates were represented by counts per minute (CPM). […] Statistically significant difference (p<0.05) was observed when 4×10^2 or 2×10^3 cells were added.
(Martinez, et al. 2008 Front Biosci 13:453-461; Mosser, et al. 2008 Nat Rev Immunol 8:958-969.) To investigate whether VentX is required for classical activation of macrophages, a loss-of-function approach by knockdown of VentX was used.
Human primary monocytes were transfected using the Human Monocyte Nucleofector Kit (Lonza) according to the manufacturer's instructions. Briefly, 5×10^6monocytes were resuspended into 100 μl nucleofector solution with 0.5 nmol of either VentX siRNA (forward: 5′-[…]-3′ (SEQ ID NO:4); reverse: 5′-[…]-3′ (SEQ ID NO:5)) or non-effective GFP siRNA (forward: 5′-[…]-3′ (SEQ ID NO:6); 5′-reverse: […]-3′ (SEQ ID NO:7)) before electroporation with nucleofector II Device (Lonza). Cells were then immediately removed from the device and incubated overnight with 1 ml pre-warmed Human Monocyte Nucleofector Medium containing 2 mM glutamine and 10% FBS. Cells were then resuspended into complete RPMI medium and treated with appropriate cytokines to induce differentiation into macrophages. Similarly, macrophages derived from monocytes were transfected with Human Macrophage Nucleofector Kit (Lonza) following the manufacturer's instructions.
Total RNA was isolated by the TRIzol reagent, and an equal amount of RNA was used for first-strand cDNA synthesis with SuperScript III First-Strand Synthesis System (Invitrogen) according to the manufacturer's protocol. To amplify VentX cDNA with conventional PCR, AccuPrime™ Taq DNA polymerase system (Invitrogen) was used following the manufacturer's instructions. PCR products were separated on 2% agarose gels and stained with ethidium bromide. GAPDH was used as an internal control. Quantitative measurement of VentX and cytokines cDNA were performed with SYBR Green on a LightCycler® (480 Real-Time PCR System; Roche). The primers used are listed in the Sequence Listing (SEQ ID NOs: 24-109).
Background: Quantitative PCR measures a nucleic acid by following its amplification.

A further data set concerns primary monocytes. Kind of data set: Monocyte to macrophage differentiation after siRNA transfection, surface markers by FACS. As to conditions: monocytes, 100 ng/mL M-CSF, 4 days after transfection (FIG. 12). How it is done: (A) knockdown of VentX expression in primary monocytes by RNA interference. Monocytes were transfected with siRNA against GFP or VentX through electroporation. VentX mRNA levels were determined by real time PCR at 3 days after transfection (left); VentX protein level was determined by western blotting at 4 days after transfection (right). (B) Effects of VentX knockdown on macrophage morphogenesis during M-CSF induced differentiation. Monocytes were transfected with either siGFP or siVentX and subsequently exposed to 100 ng/mL M-CSF. […] Magnification of photographs, ×200. Note: a portion of cells lost their original morphology during Wright-Giemsa staining procedure. (C) Effects of VentX knockdown on macrophage surface expression of CD71. […] Filled blue histogram represents the isotope control staining; red histogram represents monocytes transfected with siGFP; green histogram represents monocytes transfected with siVentX. (D) Bar graphs show mean+SD of 6 different experiments in (C). Paired t test was used to reveal the statistical significance. **p<0.01.
(A) Left panel: Flow cytometry analysis of indicated surface markers in monocytes transfected with siGFP or siVentX, respectively; right panel: bar graphs show the mean+SD of at least three separate experiments. *p<0.05; **p<0.01. (B) Effects of VentX knockdown on macrophage viability. Monocytes were transfected with either siGFP or siVentX and subsequently exposed to 100 ng/mL M-CSF for 3 days. Cells were then harvested and stained with PI and Annexin V and analyzed by flow cytometry. (C) Effects of VentX knockdown on phagocytosis. Monocytes were transfected with siGFP or siVentX. Phagocytosis assays were carried out as described in materials and methods. […]
Surface expression of CD71 was determined by FACS analysis at 4 days after siRNA transfection. […]
Peripheral blood mononuclear cells (PBMC) from healthy adult donors at Children's Hospital Boston were isolated by Ficoll density gradient centrifugation. […] The purity of freshly isolated CD14^+ monocytes was more than 95% as analyzed by flow cytometry. […]
A general note: A flow cytometer gives signals particle by particle.

The next data set has as its system VentX. Kind of data set: VentX expression during cytokine-induced monocyte to macrophage differentiation (RT-PCR, western blot). The settings on record: monocytes cultured with cytokine at 100 ng/ml (FIG. 1B).

With “siGFP: non-effective GFP siRNA, forward 5′-UGACCACCCUGACCUACGGCGUGCAGUGC-3′ (SEQ ID NO:6), reverse SEQ ID NO:7 (antisense GCACUGCACGCCGUAGGUCAGGGUGGUCA; listed as RNA, chemistry not given here) [reference compound]”, in data set [1], the “IL1-β cytokine mRNA expression” value was 51.08 ± 3.2, the “IL6 cytokine mRNA expression” value is 3.40 ± 0.21, the “IL8 cytokine mRNA expression” value was 471 ± 10.2 and the “IL12p35 cytokine mRNA expression” value is given as 1.77 ± 0.21. Besides, in data set [1], the “IL12p40 cytokine mRNA expression” value turned out to be 0.52 ± 0.02, the “M-SCSF cytokine mRNA expression” value is on record as 0.40 ± 0.01 and the “TNF-α cytokine mRNA expression” value amounted to 0.46 ± 0.04.
In the case of “VentX siRNA-2: second siRNA sequence against VentX, 5′-UCUACUCAACGUCUUCUGGCCUUGCCAAU-3′ (SEQ ID NO:3) (listed as RNA, chemistry not given here)”, the “surface expression of CD71 and other markers” value in the data set on primary monocytes was “down-regulated”.
Take “GM-CSF: granulocyte macrophage colony-stimulating factor, purchased from PeproTech”: the “VentX expression during monocyte to macrophage differentiation” value in the data set with VentX is “up-regulated”.

B1: M-CSF: macrophage colony-stimulating factor, purchased from PeproTech (protein, UniProt P09603 33-554, looked up)
Macrophage colony-stimulating …: EEVSEYCSHMIGSGHLQSLQRLIDSQMETSCQITFEFVDQEQLKDPVCYLKKAFLLVQDIMEDTMRFRDNTPNAIAIVQLQELSLRLKSCFTKDYEEHDKACVRTFYETPLQLLEKVKNVFNETKNLLDKDWNIFSKNCNNSFAECSSQDVVTKPDCNCLYPKAIPSSDPASVSPHQPLAPSMAPVAGLTWEDSEGTEGSSLLPGEQPLHTVDPGSAKQRPPRSTCQSFEPPETPVVKDSTIGGSPQPRPSVGAFNPGMEDILDSAMGTNWVPEEASGEASEIPVPQGTELSPSRPGGGSMQTEPARPSNFLSASSPLPASAKGQQPADVTGTALPRVGPVRPTGQDWNHTPQKTDHPSALLRDPPEPGSPRISSLRPQGLSNPSTLSAQPQLSRSHSSGSVLPLGELEGRRSTRDRRSPAEPEGGPASEGAARPLPRFNSVPLTDTGHERQSEGSFSPQLQESVFHLLVPSVILVLLAVGGLLFYRWRRRSHQEPQRADSPLEQPEGSPLTQDDRQVELPV
On to B1, for which the “VentX expression during monocyte to macrophage differentiation” value with VentX was “up-regulated”.
